Assay results: patent publication US12241097B2, “Compositions and methods for adoptive cell therapy for cancer” (MEMORIAL SLOAN KETTERING CANCER CENTER, priority 2017, dated 2025)
Values belong to the compound of their own block, whether it stands above or below them.

Tests used:
PC9 cells = experiment: PC9 viability, CellTitre-Glo, 48 hours; type: cell-based, human
Description: FIG. 14 provides exemplary data showing that Human T cells, but not cancer cells, are resistant to Erlotinib. (A) Human Jurkat T cells (red circle) and human non-small cell lung carcinoma cell lines PC9 (black square) and HCC827 (blue triangle) were treated with increasing concentrations of the receptor tyrosine kinase inhibitor Erlotinib. […] Cell viability was measured at 48 hours by CellTitre-Glo® luminescence.
FIG. 14 provides exemplary data showing that Human T cells, but not cancer cells, are resistant to Erlotinib. Human Jurkat T cells, primary T cells and human non-small cell lung carcinoma cell lines PC9 and HCC827 were treated with increasing concentrations of the receptor tyrosine kinase inhibitor Erlotinib. […] PC9 cells were incubated in the presence of Erlotinib, P-Erlotinib, or P-Erlotinib in the presence of purified CPG2. Cell viability was measured at 48 hours by CellTitre-Glo® luminescence.

[1] = tested on: lung adenocarcinoma cells (HCC827); experiment: coculture of 293t^CPGTM cells with HCC827 plus erlotinib prodrug; type: cell-based; conditions: 120 hr, flow cytometry
Description: FIG. 15 provides exemplary data showing the pro-drug activity of 293T cells expressing transmembrane CPG2. GFP+293t^CPGTM cells were co-cultured with lung adenocarcinoma cells (HCC827) at various ratios (293t^CPGTM:HCC827) and the erlotinib prodrug (p-erlotinib) was added. (A) Cells were analyzed at 120 hour by flow cytometry and % GFP was calculated. (B) Ratio of 293t^CPGTM cells to HCC827 cells was calculated for each cell ratio.
The retroviral constructs encoding the anti-CD19 CAR and transmembrane CPG2 enzyme described above were transduced into 293T cells to test the conversion activity of transmembrane CPG2 for an Erlotinib prodrug. GFP+293t^CPGTM cells were co-cultured with lung adenocarcinoma cells (HCC827) at various ratios (293t^CPGTM:HCC827) and the erlotinib prodrug (p-erlotinib) was added. Cells were analyzed at 120 hr. by flow cytometry (FIG. 15A) and the percentage of GFP cells and the ratio of 293t^CPGTM cells to HCC827 cells was calculated for each cell ratio (FIG. 15B).

HCC827 = HCC827 viability with Erlotinib; type: cell-based, human
primary T-cells = experiment: in vitro cytotoxicity, primary T cells; type: cell-based, human
Jurkat (T cell) = experiment: in vitro cytotoxicity, Jurkat; type: cell-based, human; conditions: T cell lines (Jurkat)
SET2 cells [2] = experiment: SET2 viability with ceph-AMS and Beta-lactamase supernatant; type: cell-based; conditions: comparable to AMS at around 100 nM
Skov-3 = experiment: cell viability, Skov-3; type: cell-based, human
HEK293T = experiment: in vitro cytotoxicity, HEK293T; type: cell-based, human; conditions: HEK293-t; unit inferred; read-out: IC50 (cell selectivity data), ceph-AMS
[3] = tested on: myeloid leukemia cell line SET2; experiment: cytotoxicity, SET2 (CellTitre Glo); type: cell-based; conditions: unit inferred, read-out: IC50 (cell selectivity data), ceph-AMS
Jurkat T cells [4] = experiment: Jurkat viability with prodrug and supernatant from CPG2-secreting HEK293T cells; type: cell-based, human; conditions: for cell viability with CPG2 supernatant: 48 hours, control media did not
Description: (§1) The in vitro cytotoxicity of AMS (structure 1c) and its prodrug variant (structure 1a) was tested against a variety of cell lines using a CellTitre Glo® assay (Promega, Madison, WI). […] Moreover, co-treatment with the prodrug and supernatant from CPG2-transfected HEK293T cells (see Example 3) led to cytotoxicity approaching that of the free drug (50 nM), consistent with CPG2-mediated cleavage of the prodrug to release the active parent drug. […] In contrast, AMS prodrug 1a was not activated by HEK293T cells expressing CPG intracellularly, which likely attributed to poor cell-penetrance of the prodrug due to the free bis-anionic gluatamate moiety.
Jurkat T cells were exposed to increasing concentrations of AMS (circle) or Pro-AMS with media alone (triangle) or supernatant from CPG2-secreting HEK293T cells (square). Cell viability was measured at 48 hours by CellTitre-Glo® luminescence assay.
Jurkat T cells were exposed to increasing concentrations of ZD2767P with media alone (triangle) or supernatant from CPG2-secreting HEK293T cells (square). Cell viability was measured at 48 hours by CellTitre-Glo® luminescence assay.

[5] = tested on: HEK293T cells expressing CPG2; experiment: viability of HEK293T cells expressing CPG2 variants exposed to prodrug; type: cell-based, human
Description: as §1
Expression of CPG2 without a signal peptide (CPG2nosigp) was employed as a control. HEK293t cells stably transfected with CPG2 variants were exposed to P-AMS ([…]) for 48 hours and analyzed by bright field microscopy (FIG. 9A). Cells were exposed to varying concentrations of P-AMS and cell viability was analyzed at 48 hr post treatment (FIG. 9B).
(§2) The HA epitope tag permitted staining of surface-level CPG2 in cells expressing either the secreted or transmembrane forms of the enzyme (FIG. 22D). […] Cell viability was measured at 48 hours by CellTitre-Glo® luminescence.

Jurkat T cells [6] = experiment: Jurkat viability with P-AMS and purified recombinant CPG2; type: cell-based, human; conditions: Jurkat viability at 48 hours
Description: FIG. 4 provides exemplary data showing activation of P-AMS (see FIG. 2) by recombinant CPG2 expressed and purified from E. coli. (A) Human Jurkat T cells were incubated with or without P-AMS in the presence of increasing concentration of purified CPG2. Cell viability was measured at 48 hours by CellTitre-Glo luminescence. (B) Recombinant CPG2 was exposed to various concentrations of glutamated AMS prodrug. Following incubation at 37° C. (0.5, 1, 2, and 4 hr.), the reaction was combined with Amplex® Red (converts free glutamate to a fluorescent species) and fluorescent emission was analyzed using a fluorescence multiwell plate scanner.
The CPG2-pET151 vector was transformed into BL21 star E. coli cells and induced with IPTG. Bacteria were homogenized in a French Press and purified by affinity chromatography over Ni++ beads using standard protocols. Imidazole was exchanged via PBS dialysis and protein was purified via desalting spin columns. The expressed and purified CPG2 was assayed to confirm that the active enzyme was a potent converter of glutamated prodrugs. […] Pro-AMS was activated by recombinant CPG2 in vitro. Human Jurkat T cells were incubated with or without P-AMS in the presence of increasing concentration of purified CPG2. Cell viability of the Jurkat cells was measured at 48 hours by CellTitre-Glo® luminescence. […]

SET2 cells [7] = experiment: SET2 viability with prodrug and supernatant from CPG2-secreting HEK293t cells; type: cell-based; conditions: comparable to AMS at around 100 nM
Description: SET2 cells were exposed to increasing concentrations of AMS (square) or glut-AMS with media alone (− control, triangle) or supernatant from CPG2-secreting HEK293t cells (circle). Cell viability was measured by CellTitre-Glo® luminescence assay.
as §2

SMILES: C#Cc1cccc(N(Cc2ccc(NC(=O)N[C@@H](CCC(=O)O)C(=O)O)cc2)c2ncnc3cc(OCCOC)c(OCCOC)cc23)c1 [P-Erlotinib]
toxicity of prodrug alone (PC9 cells; PC9, 1 μM, 48 hours): no toxicity
activity of prodrug cleaved by purified CPG2 (PC9 cells; PC9, with purified CPG2): comparable activity to the active drug
killing after conversion by transmembrane CPG2 [1]: kills the target cancer cell

SMILES: C#Cc1cccc(Nc2ncnc3cc(OCCOC)c(OCCOC)cc23)c1 [Erlotinib, reference compound]
cell death with increasing concentrations (HCC827): significant cell death
response to increasing concentrations (primary T-cells; primary T cells): resistance
response to increasing concentrations (Jurkat (T cell)): resistance
cell death with increasing concentrations (PC9 cells; PC9): significant cell death

SMILES: Nc1ncnc2c1ncn2[C@@H]1O[C@H](COS(=O)(=O)NCC2=C(C(=O)O)N3C(=O)[C@@H](NC(=O)Cc4cccs4)[C@H]3SC2)[C@@H](O)[C@H]1O [ceph-AMS]
cell viability with Beta-lactamase supernatant (SET2 cells [2]): significant decrease in cell viability
Selective Index (Skov-3): 3.6
IC50 (Skov-3; unit inferred, read-out: IC50 (cell selectivity data), ceph-AMS): > 1250 nM
IC50 (primary T-cells; Human T cell, unit inferred, read-out: IC50 (cell selectivity data), ceph-AMS): > 1250 nM
IC50 (HEK293T): 2000 nM
IC50 [3]: ~2200 nM

SMILES: O=C(O)CC[C@H](NC(=O)Oc1ccc(N(CCI)CCI)cc1)C(=O)O [ZD2767P, reference compound]
cell viability with CPG2 supernatant (Jurkat T cells [4]): significant decrease in cell viability

IC50 (Jurkat T cells [4]; Homo sapiens, with CPG2 supernatant, read-out: IC50, co-treatment with supernatant from CPG2-transfected HEK293T cells): 50 nM
SMILES: NS(=O)(=O)OC[C@H]1O[C@@H](n2cnc3c(NC(=O)N[C@@H](CCC(=O)O)C(=O)O)ncnc32)[C@H](O)[C@@H]1O [P-AMS, ((9-((2R,3R,4S,5R)-3,4-dihydroxy-5-((sulfamoyloxy)methyl)tetrahydrofuran-2-yl)-9H-purin-6-yl)carbamoyl)-L-glutamic Acid]
cell death of HEK293T cells expressing CPG2 ([5]; cell-secreted and transmembrane CPG2, 48 hours, control construct did not): significant cell death
activation by HEK293T cells expressing CPG intracellularly ([5]; intracellular CPG): not activated
cell viability with CPG2 supernatant (Jurkat T cells [4]): significant decrease in cell viability
activation by recombinant CPG2 (Jurkat T cells [6]): activated
cell viability with CPG2 supernatant (SET2 cells [7]): significant decrease in cell viability
